Values joined by “and” are separate entries in the source; they are usually repeats but may differ in a detail not shown here. Identical values can stand only once. Like-named read-outs stand apart in the source and are kept apart here.
How the values were obtained:
[1] = system: Human DU145 prostate carcinoma cells; assay: DU145 cell proliferation, CellTiter 96, 72 h exposure; type: cell-based; conditions: for Growth (average percent cell survival relative to the control group after 72 h exposure period) / Absorbance (net absorbance at 490 nm, net growth after 72 h) / Growth (average percent cell survival relative to the control group): DU145; for Growth (average percent cell survival relative to the control group after 72 h exposure period): lovastatin […], alone or all three together; for IC50: DU145 cells, estimated, read-out: IC50 (suppression of proliferation)
Protocol: (§1) Seeding density was determined in the following pilot test. […] Incubation continued for an additional 48 h.
(§2) Incubation continued for additional 72 h.

[2] = system: Human PC-3 prostate adenocarcinoma cells; assay: PC-3 cell proliferation, CellTiter 96, 72 h exposure; type: cell-based; conditions: for Growth (average percent cell survival relative to the control group): PC3; for Absorbance (net absorbance at 490 nm, net growth after 72 h): PC-3; for IC50: PC-3 cells, estimated, read-out: IC50 (suppression of proliferation)
Protocol: as §1, §2

[3] = system: Human LNCaP prostate carcinoma cells; assay: LNCaP cell proliferation, CellTiter 96, 72 h exposure; type: cell-based
Protocol: as §1, §2

[4] = system: DU145 cancer cell cultures; assay: Cell phase distribution by flow cytometry (propidium iodine), DU145; type: cell-based, Human; conditions: genistein 10 μM, lovastatin […], γ-tocotrienol 5 μM, alone or all three together; for G2 phase cells: control 11.6%; for G1 phase cells: control 65.4%; for S phase cells: control […]
Excerpt: (§3) Subsequent to the treatment of the cancer cells with these HGM-CoA reductase inhibitors, the cells were fixed in ethanol, treated with RNase and stained with propidium iodine. Fluorescent measurements were then made via a flow cytometer using a laser. A double discriminator was used as the primary gate to eliminate cell aggregates. The distribution profiles associated with the various phases (G1, S) were then obtained through the use of least squares fits of the frequency emission spectra.

B16 melanoma cells = assay: B16 melanoma cell proliferation (cell count / CellTiter 96); conditions: for Observed Growth (empirical percentage survival): 40 hour exposure; for Growth (average percent cell survival relative to the control group after 72 h exposure period): geranyl anthranilate 30 μM, alone or all three together
Protocol: B16 melanoma cells were grown in monolayer culture (35×10 mm flasks) in 3 ml RPMI 1640 medium supplemented with 10% fetal bovine serum (FBS) and 80 mg gentamicin/L. The cultures, seeded with 3.3×10^4 cells/mL, were incubated for 24 h at 37° C. in a humidified atmosphere of 5% CO2. The medium was decanted and replaced with fresh medium containing the test agents. Tocotrienol, perillyl alcohol, and geranyl- or farnesyl-hydroquinone ethers were dissolved in ethanol; and lovastatin and genistein were dissolved in dimethyl sulfoxide, DMSO. The incubations were continued for an additional 48 h. All cultures contained 1 ml/L each of ethanol and DMSO. The medium and detached cells were decanted, the monolayer was washed twice with Hanks' Balanced Salt Solution (HBSS) and then incubated with a trypsin-EDTA solution at 37° C. for 2 min. Trypsin was inactivated by suspending the cells in medium containing 10% FBS. The trypsinized cells were pelleted at 250 xg and resuspended in HBSS. Viable cells, cells that excluded 0.4% trypan blue were counted with a hemocytometer; 24-h cell counts were deducted from final cell counts to provide an estimate of the net increase in cell number.
Measurement of B16 cell proliferation was confirmed by using CellTiter 96, Aqueous One Solution (Promega). Seeding density was determined in the following pilot test. B16 cells were maintained in monolayer culture (96-well tissue culture plate) in 0.1 mL of the medium described above. Cultures, seeded in escalating densities (0-8000 cells/well with a 500-cell interval), were incubated for 72 h at 37° C. in a humidified atmosphere of 5% CO2. At 24 h the medium was decanted from each well and replaced with 0.1 mL fresh medium. The 72-h cell populations were determined by adding 20 μl of CellTiter 96, Aqueous One Solution to each well; the plate was held in dark at 37° C. for 2 h and then read at 490 nm with a SPECTRAmax, 190 multi-plate reader with SOFTmax, PRO version 3.0 (Molecular Devices). Cell survival data were assessed as absorbance versus cell seeding density. The absorbance has a linear correlation with cell seeding density up to 2000 B16 cells/well. The midpoint of cell inoculation density, 1000 cells/well, was chosen for B16 cell proliferation assay. This procedure of determining seeding density also applies to all other cell lines in which the CellTiter 96, Aqueous One Solution was used for proliferation assay. In the proliferation assay, B16cells were incubated in 96-well plates for 24 h. The medium was decanted from each well and replaced with 0.1 mL fresh medium containing the test agents. Incubation continued for an additional 48 h. Cell populations of all wells were determined according to CellTiter 96 procedure as described above. Cell proliferation represents the net absorbance, the difference in absorbance between final and 24-h measurements.

B16 cancer cell cultures = assay: Cell phase distribution by flow cytometry (propidium iodine), B16; type: cell-based; conditions: genistein 5 μM, lovastatin 0.5 μM, geranyl anthranilate 30 μM, alone or all three together; for G2 phase cells: control 12.7%; for S phase cells: control 22.5%; for G1 phase cells: control 64.9%
Excerpt: as §3

[5] = genistein 10 μM, γ-tocotrienol 5 μM
[6] = perillyl alcohol 800 μM, negative = cell killing
[7] = genistein 5 μM, lovastatin 0.5 μM

γ-tocotrienol
Growth (average percent cell survival relative to the control group after 72 h exposure period) [1, 5]: 87% | Absorbance (net absorbance at 490 nm, net growth after 72 h) ([1]; γ-tocotrienol 5 μM): 0.39 | Growth (average percent cell survival relative to the control group) ([1]; γ-tocotrienol 5 μM): 87% | Absorbance (net absorbance at 490 nm, net growth after 72 h) ([1]; γ-tocotrienol 10 μM): 0.40 | Growth (average percent cell survival relative to the control group) ([1]; γ-tocotrienol 10 μM): 68% | Absorbance (net absorbance at 490 nm, net growth after 72 h) ([1]; γ-tocotrienol 20 μM): 0.33 | Growth (average percent cell survival relative to the control group) ([1]; γ-tocotrienol 20 μM): 70% | Absorbance (net absorbance at 490 nm, net growth after 72 h) ([1]; γ-tocotrienol 30 μM): 0.20 | Absorbance (net absorbance at 490 nm, net growth after 72 h) ([1]; γ-tocotrienol 40 μM, negative = cell killing): −0.05 | IC50 [1]: 20 ± 2 µM | Growth (average percent cell survival relative to the control group) ([2]; γ-tocotrienol 20 μM): 100% | Absorbance (net absorbance at 490 nm, net growth after 72 h) ([2]; γ-tocotrienol 40 μM): 0.36 | Absorbance (net absorbance at 490 nm, net growth after 72 h) ([2]; γ-tocotrienol 80 μM): 0.02 | IC50 [2]: 39 µM | Growth (average percent cell survival relative to the control group) ([3]; γ-tocotrienol 5 μM): 100% | Growth (average percent cell survival relative to the control group) ([3]; γ-tocotrienol 10 μM): 76% | Growth (average percent cell survival relative to the control group) ([3]; γ-tocotrienol 20 μM): 70% | G2 phase cells [4]: 12.2% | G1 phase cells [4]: 66.7% | S phase cells [4]: 21.1% | Growth (average percent cell survival relative to the control group) (B16 melanoma cells; γ-tocotrienol 5 μM): 73%

C=C(C)[C@@H]1CC=C(CO)CC1 [Perillyl Alcohol, perillyl alcohol]
Absorbance (net absorbance at 490 nm, net growth after 72 h) ([1]; perillyl alcohol 100 μM): 0.46 | Absorbance (net absorbance at 490 nm, net growth after 72 h) ([1]; perillyl alcohol 200 μM): 0.40 | Absorbance (net absorbance at 490 nm, net growth after 72 h) ([1]; perillyl alcohol 400 μM): 0.18 | Absorbance (net absorbance at 490 nm, net growth after 72 h) [1, 6]: −0.06 | Absorbance (net absorbance at 490 nm, net growth after 72 h) ([1]; perillyl alcohol 1600 μM, negative = cell killing): −0.05 | IC50 ([1]; Homo sapiens, DU-145): 420 µM | IC50 ([2]; Homo sapiens): 480 µM | Absorbance (net absorbance at 490 nm, net growth after 72 h) ([2]; perillyl alcohol 200 μM): 0.34 | Absorbance (net absorbance at 490 nm, net growth after 72 h) ([2]; perillyl alcohol 400 μM): 0.09 | Absorbance (net absorbance at 490 nm, net growth after 72 h) ([2]; perillyl alcohol 600 μM): 0.06 | Absorbance (net absorbance at 490 nm, net growth after 72 h) [2, 6]: −0.05

O=c1c(-c2ccc(O)cc2)coc2cc(O)cc(O)c12 [Genistein, genistein]
Absorbance (net absorbance at 490 nm, net growth after 72 h) ([1]; genistein 10 μM): 0.53 | Growth (average percent cell survival relative to the control group) ([1]; genistein 10 μM): 100% and 93% | Growth (average percent cell survival relative to the control group after 72 h exposure period) [1, 5]: 100% | Absorbance (net absorbance at 490 nm, net growth after 72 h) ([1]; genistein 20 μM): 0.34 | Growth (average percent cell survival relative to the control group) ([1]; genistein 20 μM): 97% | Absorbance (net absorbance at 490 nm, net growth after 72 h) ([1]; genistein 40 μM): 0.20 | Growth (average percent cell survival relative to the control group) ([1]; genistein 40 μM): 38 ± 10% | IC50 ([1]; Homo sapiens, DU-145): 30 µM | IC50 ([2]; Homo sapiens): 70 ± 17 µM | Growth (average percent cell survival relative to the control group) ([2]; genistein 10 μM): 121 ± 3% | Growth (average percent cell survival relative to the control group) ([2]; genistein 20 μM): 87% and 95 ± 4% | Growth (average percent cell survival relative to the control group) ([2]; genistein 40 μM): 78% and 74 ± 11% and 84 ± 2% | Absorbance (net absorbance at 490 nm, net growth after 72 h) ([2]; genistein 10 μM): 0.43 | Absorbance (net absorbance at 490 nm, net growth after 72 h) ([2]; genistein 20 μM): 0.39 | Absorbance (net absorbance at 490 nm, net growth after 72 h) ([2]; genistein 40 μM): 0.32 | Growth (average percent cell survival relative to the control group) ([3]; genistein 10 μM): 100% | Growth (average percent cell survival relative to the control group) ([3]; genistein 20 μM): 70% and 99% | G2 phase cells [4]: 15.8% | G1 phase cells [4]: 64.9% | S phase cells [4]: 19.3% | G2 phase cells (B16 cancer cell cultures): 10.8% | S phase cells (B16 cancer cell cultures): 21.7% | G1 phase cells (B16 cancer cell cultures): 67.6% | Growth (average percent cell survival relative to the control group) (B16 melanoma cells; genistein 5 μM): 83% | Observed Growth (empirical percentage survival) (B16 melanoma cells; genistein 5.0 μM): 63% | Growth (average percent cell survival relative to the control group after 72 h exposure period) (B16 melanoma cells; [7]): 73%

CC(=O)O[C@H]1C(=O)[C@@]2(C)[C@H]([C@H](OC(=O)c3ccccc3)[C@]3(O)C[C@H](OC(=O)[C@H](O)[C@@H](NC(=O)c4ccccc4)c4ccccc4)C(C)=C1C3(C)C)[C@]1(OC(C)=O)CO[C@@H]1C[C@@H]2O [Taxol, taxol, reference compound]
Growth (average percent cell survival relative to the control group) ([2]; taxol 2 nM): 97 ± 5% | Growth (average percent cell survival relative to the control group) ([2]; taxol 5 nM): 71 ± 1%

CC(C)=CCCC(C)=CCCC(C)=CCO [Farnesol, farnesol]
Growth (average percent cell survival relative to the control group) ([1]; farnesol 50 μM): 38% | Growth (average percent cell survival relative to the control group) ([1]; farnesol 100 μM): 79 ± 11% | Growth (average percent cell survival relative to the control group) ([2]; farnesol 50 μM): 53 ± 5% | Growth (average percent cell survival relative to the control group) ([2]; farnesol 100 μM): 93 ± 7% | Observed Growth (empirical percentage survival) (B16 melanoma cells; farnesol 12.5 μM): 84% | Observed Growth (empirical percentage survival) (B16 melanoma cells; farnesol 25 μM): 54%

C/C=C(\C)C(=O)OCC=C(C)CCC=C(C)CCC=C(C)C [Farnesyl Tiglate, farnesyl tiglate]
Growth (average percent cell survival relative to the control group) (B16 melanoma cells; farnesyl tiglate 25 μM): 70% | Growth (average percent cell survival relative to the control group) (B16 melanoma cells; farnesyl tiglate 50 μM): 49%

CC(C)=CCC/C(C)=C/COC(=O)c1ccccc1N [Geranyl Anthranilate, geranyl anthranilate]
G2 phase cells (B16 cancer cell cultures): 9.8% | S phase cells (B16 cancer cell cultures): 22.9% | G1 phase cells (B16 cancer cell cultures): 67.3% | Growth (average percent cell survival relative to the control group after 72 h exposure period) (B16 melanoma cells; [7]): 81%

CC[C@H](C)C(=O)O[C@H]1C[C@@H](C)C=C2C=C[C@H](C)[C@H](CC[C@@H]3C[C@@H](O)CC(=O)O3)[C@H]21 [Lovastatin, [1S-[1α(R*),3α,7β,8β(2S*,4S*), 8a.β.]]-2-methylbutanoic acid 1,2,3,7,8,8a-hexahydro-3,7-dimethyl-8-[2-(tetrahydro-4-hydroxy-6-oxo-2H-pyran-2-yl)ethyl]-1-naphthalenyl ester, reference compound]
Growth (average percent cell survival relative to the control group after 72 h exposure period) [1, 5]: 100% | Growth (average percent cell survival relative to the control group) ([1]; lovastatin 3 μM): 100% | Growth (average percent cell survival relative to the control group) ([1]; lovastatin 3.0 μM): 100% | Absorbance (net absorbance at 490 nm, net growth after 72 h) ([1]; lovastatin 4 μM): 0.37 | Absorbance (net absorbance at 490 nm, net growth after 72 h) ([1]; lovastatin 8 μM): 0.30 | Absorbance (net absorbance at 490 nm, net growth after 72 h) ([1]; lovastatin 16 μM): 0.18 | Absorbance (net absorbance at 490 nm, net growth after 72 h) ([1]; lovastatin 32 μM): 0.15 | IC50 ([1]; Homo sapiens, DU-145): 18 ± 2 µM | IC50 ([2]; Homo sapiens): 2.2 ± 0.5 µM | Growth (average percent cell survival relative to the control group) ([2]; lovastatin 0.75 μM): 87 ± 3% | Absorbance (net absorbance at 490 nm, net growth after 72 h) ([2]; lovastatin 1 μM): 0.32 | Absorbance (net absorbance at 490 nm, net growth after 72 h) ([2]; lovastatin 2 μM): 0.10 | Absorbance (net absorbance at 490 nm, net growth after 72 h) ([2]; lovastatin 4 μM, negative = cell killing): −0.02 | Growth (average percent cell survival relative to the control group) ([3]; lovastatin 3 μM): 100% | Growth (average percent cell survival relative to the control group) ([3]; lovastatin 3.0 μM): 100% | G2 phase cells [4]: 15.7% | G1 phase cells [4]: 62.0% | S phase cells [4]: 22.3% | G2 phase cells (B16 cancer cell cultures): 9.3% | S phase cells (B16 cancer cell cultures): 22.2% | G1 phase cells (B16 cancer cell cultures): 68.5% | Growth (average percent cell survival relative to the control group after 72 h exposure period) (B16 melanoma cells; [7]): 71% | Growth (average percent cell survival relative to the control group) (B16 melanoma cells; lovastatin 0.5 μM): 100% | Growth (average percent cell survival relative to the control group) (B16 melanoma cells; lovastatin 1.0 μM): 83% | Growth (average percent cell survival relative to the control group) (B16 melanoma cells; lovastatin 3.0 μM): 42%

Reference: US7074825B2, “Composition and method for treating cancer” (priority 2002, dated 2006)
